Laboratory results as given in US20200093103A1, “BREEDING WATER FOR ANGUILLIFORMES AND METHOD FOR REARING ANGUILLIFORMES” (SHIN NIPPON BIOMEDICAL LABORATORIES, LTD., priority 2016, published 2020).

Test system: Anguilla japonica leptocephali
Test: Induction of Anguilla japonica metamorphosis by T4 treatment in 23° C. breeding water
Type: in vivo
Parameters: key: L: During life, no characteristics of metamorphosis seen.; Stage 1: Starting phase of metamorphosis. The rostral end is rounded, and intestinal degeneration starts.; Stage 2: Peak phase of metamorphosis. Intestinal degeneration becomes pronounced.; Stage 3: Late phase of metamorphosis.; Stage 4: Pre-glass eel stage. Almost the eel form, but the body height still remains
Text: Stage 1: Starting phase of metamorphosis. The rostral end is rounded, and intestinal degeneration starts.
Stage 2: Peak phase of metamorphosis. Intestinal degeneration becomes pronounced. In the second half, the anus reaches to near the last vertical blood vessel (VBV last).
Stage 3: Late phase of metamorphosis. The preanal length (PAL) becomes equal to or shorter than the last vertical blood vessel length (VBV last Length) (PAL VBV last Length). The body height is apparently low.
Stage 4: Pre-glass eel stage. Almost the eel form, but the body height still remains. Melanophores on the body surface or endogenous melanophores are not yet seen.
Elver stage: Juvenile stage. Food intake can be identified.
A thyroid hormone (e.g., thyroxine (T4)) is adjusted to 50 to 100 mM in a 1- to 2-mL volume messflask. As a solvent, known solvents (water, alcohol) can be used. Ethanol is preferably used as the solvent.
For example, using ethanol as a solvent, T4 adjusted to 50 mM is diluted 500-fold, 5,000-fold, and 50,000-fold, respectively, and adjusted to […], 1 μM, and 100 nM. A feed can be prepared in this manner.
Artificial seawater is added to a breeding vessel, and 1/1000 of the […] T4 is added to prepare […] T4 breeding water.
Half of the breeding water is replaced every two days with breeding water of the same concentration. In the case where the concentration is changed, for example, in the case of changing from 10 nM to 2 nM, 80% to the breeding water is removed, and unadjusted artificial seawater is newly added to make 1 L.
Leptocephali visually considered to have reached a total length of 40 mm (or may be 30 mm to 50 mm, may be 35 mm to 45 mm, or may also be 35 mm or more, 40 mm or more, or 45 mm or more) are selected, anesthetized with 2-phenoxyethanol, and then photographed, and the total length of each larva is measured using an image analyzing device.
The larvae are placed in 10 nM T4 breeding water and then placed in an incubator set at 23° C., and breeding is started. In first one week, observation is performed every two days, and half of the 10 nM T4 breeding water is replaced each time. The average amount of thyroid hormone in the breeding water in stage 1 is 1 nM to 100 nM, for example, and may also be 3 nM to 30 nM, or 5 nM to 20 nM.
For larvae visually judged to have reached the second half of stage 2, the concentration of the breeding water is changed. The breeding water is diluted 5-fold or 10-fold and adjusted to 2 nM or 1 nM T4, and breeding is continued. The average amount of thyroid hormone in the breeding water in stage 2 may be, as compared with the breeding water of stage 1, diluted 2-fold to 20-fold, diluted 3 to 15-fold, or diluted 5 to 10-fold as described above. The average amount of thyroid hormone in the breeding water in stage 2 is 0.1 nM to 20 nM, for example, and may also be 0.5 nM to 10 nM, 1 nM to 5 nM, or 1 nM to 2 nM.
For larvae visually judged to have reached stage 3, the breeding water is quickly changed 0.2 nM T4 breeding water, which is a 5-fold dilution of 1 nM T4 breeding water, and further changed to 0.1 nM T4 breeding water on the following day. […] Also, in larvae whose anus position has not reached the last vertical hemal spine, when they are judged to be on the brink of stage 3, the concentration is changed as above. The average amount of thyroid hormone in the breeding water in stage 3 may be, as compared with the breeding water of stage 2, diluted 2-fold to 50-fold, diluted 3 to 15-fold, diluted 4 to 6-fold, or diluted 5-fold as described above. The average amount of thyroid hormone in the breeding water in stage 3 is 0.01 nM to 2 nM, for example, and may also be 0.05 nM to 1 nM, 0.1 nM to 0.5 nM, or 0.1 nM to 0.2 nM. […] That is, the concentration may be changed such that the thyroid hormone becomes undetectable in the breeding water in the course of stage 3.
In stage 3, breeding is continuously performed in the 0.1 nM T4 breeding water. […]

Compound `N[C@@H](Cc1cc(I)c(Oc2cc(I)c(O)c(I)c2)c(I)c1)C(=O)O` [T4, thyroxine] has a metamorphosis stage (individual Exp 5-5, 174 days old, total length 36.1 mm at start, c3 onward = treatment days 1,3,5,7,8,9,10,11,12,13,14,15,16,17, T4 (nM) 10,10,10,10,10,10,10,2,0.2,0.1,0.1,0.1,0.1,0.1, treatment day 16, T4 0.1 nM) of 3, a metamorphosis stage (individual Exp 5-5, 174 days old, total length 36.1 mm at start, c3 onward = treatment days 1,3,5,7,8,9,10,11,12,13,14,15,16,17, T4 (nM) 10,10,10,10,10,10,10,2,0.2,0.1,0.1,0.1,0.1,0.1, treatment day 17, T4 0.1 nM) of 4 and a metamorphosis stage (individual Exp 6-2, 129 days old, total length 38.1 mm at start, c3 onward = treatment days 1,3,5,7,9,10,11,12,13,14,15,16,17,18, T4 (nM) 10,10,10,10,10,2,0.2,0.1,0.1,0.1,0.1,0.1,0.1,0.1) of 3. The metamorphosis stage (individual Exp. 5-1, 175 days old, total length 38.5 mm at start, c3 onward = treatment days 1,3,5,7,8,9,10,11,12,13,14,15,16,17,18, T4 (nM) 10,10,10,10,2,1,0.2,0.1,0.1,0.1,0.1,0.1, treatment day 1, T4 10 nM) was “L”, the metamorphosis stage (individual Exp. 5-1, 175 days old, total length 38.5 mm at start, c3 onward = treatment days 1,3,5,7,8,9,10,11,12,13,14,15,16,17,18, T4 (nM) 10,10,10,10,2,1,0.2,0.1,0.1,0.1,0.1,0.1, treatment day 3, T4 10 nM) was “L” and the metamorphosis stage (individual Exp. 5-1, 175 days old, total length 38.5 mm at start, c3 onward = treatment days 1,3,5,7,8,9,10,11,12,13,14,15,16,17,18, T4 (nM) 10,10,10,10,2,1,0.2,0.1,0.1,0.1,0.1,0.1, treatment day 5, T4 10 nM) was 1. For the same compound, the metamorphosis stage (individual Exp. 5-1, 175 days old, total length 38.5 mm at start, c3 onward = treatment days 1,3,5,7,8,9,10,11,12,13,14,15,16,17,18, T4 (nM) 10,10,10,10,2,1,0.2,0.1,0.1,0.1,0.1,0.1, treatment day 7, T4 10 nM) was 2, the metamorphosis stage (individual Exp. 5-1, 175 days old, total length 38.5 mm at start, c3 onward = treatment days 1,3,5,7,8,9,10,11,12,13,14,15,16,17,18, T4 (nM) 10,10,10,10,2,1,0.2,0.1,0.1,0.1,0.1,0.1, treatment day 8, T4 2 nM) was 2 and the metamorphosis stage (individual Exp. 5-1, 175 days old, total length 38.5 mm at start, c3 onward = treatment days 1,3,5,7,8,9,10,11,12,13,14,15,16,17,18, T4 (nM) 10,10,10,10,2,1,0.2,0.1,0.1,0.1,0.1,0.1, treatment day 9, T4 1 nM) was 2. The metamorphosis stage (individual Exp. 5-1, 175 days old, total length 38.5 mm at start, c3 onward = treatment days 1,3,5,7,8,9,10,11,12,13,14,15,16,17,18, T4 (nM) 10,10,10,10,2,1,0.2,0.1,0.1,0.1,0.1,0.1, treatment day 10, T4 0.2 nM) was 3, the metamorphosis stage (individual Exp. 5-1, 175 days old, total length 38.5 mm at start, c3 onward = treatment days 1,3,5,7,8,9,10,11,12,13,14,15,16,17,18, T4 (nM) 10,10,10,10,2,1,0.2,0.1,0.1,0.1,0.1,0.1, treatment day 11, T4 0.1 nM) was 3 and the metamorphosis stage (individual Exp. 5-1, 175 days old, total length 38.5 mm at start, c3 onward = treatment days 1,3,5,7,8,9,10,11,12,13,14,15,16,17,18, T4 (nM) 10,10,10,10,2,1,0.2,0.1,0.1,0.1,0.1,0.1, treatment day 12, T4 0.1 nM) was 3. For the same compound, the metamorphosis stage (individual Exp. 5-1, 175 days old, total length 38.5 mm at start, c3 onward = treatment days 1,3,5,7,8,9,10,11,12,13,14,15,16,17,18, T4 (nM) 10,10,10,10,2,1,0.2,0.1,0.1,0.1,0.1,0.1, treatment day 13, T4 0.1 nM) was 3, the metamorphosis stage (individual Exp. 5-1, 175 days old, total length 38.5 mm at start, c3 onward = treatment days 1,3,5,7,8,9,10,11,12,13,14,15,16,17,18, T4 (nM) 10,10,10,10,2,1,0.2,0.1,0.1,0.1,0.1,0.1, treatment day 14, T4 0.1 nM) was 3 and the metamorphosis stage (individual Exp. 5-1, 175 days old, total length 38.5 mm at start, c3 onward = treatment days 1,3,5,7,8,9,10,11,12,13,14,15,16,17,18, T4 (nM) 10,10,10,10,2,1,0.2,0.1,0.1,0.1,0.1,0.1, treatment day 15, T4 0.1 nM) was 4. The metamorphosis stage (individual Exp. 5-2, 175 days old, total length 41.3 mm at start, c3 onward = treatment days 1,3,5,7,8,9,10,11,12,13,14,15,16,17,18, T4 (nM) 10,10,10,10,2,1,0.2,0.1,0.1,0.1,0.1,0.1, treatment day 1, T4 10 nM) was “L”, the metamorphosis stage (individual Exp. 5-2, 175 days old, total length 41.3 mm at start, c3 onward = treatment days 1,3,5,7,8,9,10,11,12,13,14,15,16,17,18, T4 (nM) 10,10,10,10,2,1,0.2,0.1,0.1,0.1,0.1,0.1, treatment day 3, T4 10 nM) was “L” and the metamorphosis stage (individual Exp. 5-2, 175 days old, total length 41.3 mm at start, c3 onward = treatment days 1,3,5,7,8,9,10,11,12,13,14,15,16,17,18, T4 (nM) 10,10,10,10,2,1,0.2,0.1,0.1,0.1,0.1,0.1, treatment day 5, T4 10 nM) was 2. The metamorphosis stage (individual Exp. 5-2, 175 days old, total length 41.3 mm at start, c3 onward = treatment days 1,3,5,7,8,9,10,11,12,13,14,15,16,17,18, T4 (nM) 10,10,10,10,2,1,0.2,0.1,0.1,0.1,0.1,0.1, treatment day 7, T4 10 nM) was 2, the metamorphosis stage (individual Exp. 5-2, 175 days old, total length 41.3 mm at start, c3 onward = treatment days 1,3,5,7,8,9,10,11,12,13,14,15,16,17,18, T4 (nM) 10,10,10,10,2,1,0.2,0.1,0.1,0.1,0.1,0.1, treatment day 8, T4 2 nM) was 2 and the metamorphosis stage (individual Exp. 5-2, 175 days old, total length 41.3 mm at start, c3 onward = treatment days 1,3,5,7,8,9,10,11,12,13,14,15,16,17,18, T4 (nM) 10,10,10,10,2,1,0.2,0.1,0.1,0.1,0.1,0.1, treatment day 9, T4 1 nM) was 2. It also gave a metamorphosis stage (individual Exp. 5-2, 175 days old, total length 41.3 mm at start, c3 onward = treatment days 1,3,5,7,8,9,10,11,12,13,14,15,16,17,18, T4 (nM) 10,10,10,10,2,1,0.2,0.1,0.1,0.1,0.1,0.1, treatment day 10, T4 0.2 nM) of 3, a metamorphosis stage (individual Exp. 5-2, 175 days old, total length 41.3 mm at start, c3 onward = treatment days 1,3,5,7,8,9,10,11,12,13,14,15,16,17,18, T4 (nM) 10,10,10,10,2,1,0.2,0.1,0.1,0.1,0.1,0.1, treatment day 11, T4 0.1 nM) of 3 and a metamorphosis stage (individual Exp. 5-2, 175 days old, total length 41.3 mm at start, c3 onward = treatment days 1,3,5,7,8,9,10,11,12,13,14,15,16,17,18, T4 (nM) 10,10,10,10,2,1,0.2,0.1,0.1,0.1,0.1,0.1, treatment day 12, T4 0.1 nM) of 3. The metamorphosis stage (individual Exp. 5-2, 175 days old, total length 41.3 mm at start, c3 onward = treatment days 1,3,5,7,8,9,10,11,12,13,14,15,16,17,18, T4 (nM) 10,10,10,10,2,1,0.2,0.1,0.1,0.1,0.1,0.1, treatment day 13, T4 0.1 nM) was 3.
